US6479516B1, “4-arylpiperidine derivatives for the treatment of pruritus” (Pfizer Inc, priority 1999, dated 2002)

Test system: Male Wistar rats
Test: Inhibition of hind leg scratching behaviour induced in rats by a pruritogenic agent (5-methoxytryptamine hydrochloride)
Format: in vivo, rat
Settings: test compound by subcutaneous injection in aqueous micelle formulation; pruritogen 5-methoxytryptamine hydrochloride 4 mg/3 mL/kg s.c.; hindleg scratching score totalled after 25 minutes vs control group
Experimental: The compounds of the invention are evaluated for their activity as antipruritic agents by measuring their ability to inhibit the hind leg scratching behaviour induced in rats by the administration of a known pruritogenic agent. These studies are based on the procedure described by Berendsen and Broekkamp in the European Journal of Pharmacology, 1991, 194, 201. The test is performed as follows:
Male Wistar rats (approximately 150 g body weight) are challenged with a pruritogen by subcutaneous injection of 5-methoxytryptamine hydrochloride (4 mg/3 mL/kg) dissolved in physiological saline into the scruff of the neck. At this dose a constant and quantifiable hindleg scratching response lasting up to 90 minutes is obtained.
The test compound is administered to the test animals by subcutaneous injection in an aqueous micelle formulation. The test compound is prepared in the following manner. The compound is dissolved in a vehicle (composition v/v %: glycerol formal, 24; tween 80, 17; benzyl alcohol, 1.5 and purified water to 100) then seven parts purified water is added to three parts of the above vehicle to give the aqueous micelle formulation. […]
After the pruritogen challenge has been administered, hindleg scratching is scored for each animal by recording the presence or absence of scratching during each 30 second interval as 1 or 0 scored respectively. […]

SMILES: CCCCCCN1CC[C@@](C)(c2ccc(NC(C)=O)c(O)c2)[C@H](C)C1 (racemic) [Example 8, (±)-N-Hexyl-trans-3,4-dimethyl-4-(4-acetylamino-3-hydroxyphenyl)piperidine]
- anti-pruritic activity: display anti-pruritic activity
